In patent US12109294B2, “Oily moisturizer and topical skin composition containing same” (The Nisshin OilliO Group, Ltd., priority 2018, dated 2024):

System: skin stratum corneum (forearm)
Assay: Evaluation test of moisture retention effect upon single application of esterified product (stratum corneum moisture content, SKICON-200)
Assay type: in vivo, human
Description: The moisture content of the stratum corneum can be investigated using the electrical conductivity (μS) of the stratum corneum. The electrical conductivity (μS) of the stratum corneum is dependent on the water content of the stratum corneum, and the greater the moisture content of the stratum corneum, the larger the electrical conductivity (μS) of the stratum corneum becomes. The electrical conductivity (μS) of the stratum corneum can be measured by a constant-pressure sensor probe contact high-frequency conductance exchange method. Specifically, the electrical conductivity (μS) of the stratum corneum can be measured by using a stratum corneum moisture content measuring device based on the above measurement method, such as a stratum comeum moisture content measuring device “SKICON-200” manufactured by IBS Co., Ltd.
After maintaining the state with the oily moisturizer applied to the skin for a certain period, for example 30 to 90 minutes, the oily moisturizer is removed from the skin surface. […] Using the obtained values for the electrical conductivity (uS) of the stratum corneum before and after application of the oily moisturizer, the moisture retention effect value is calculated and the moisture retention effect is evaluated. […]
Subsequently, 40 μL of the test sample being evaluated was applied uniformly to the square measurement region of the forearm. […]

OCC(O)CO [glycerol]
Increase in the electrical conductivity that corresponds with the moisture retention effect value (60 minutes after application, still applied to the skin surface, prior to removal using water): 477 μS
Moisture retention effect value (single application, removal with cotton swab immersed in water rather than hexane): 8 μS
